In patent US20250144069A1, “BILOBALIDE DERIVATIVE COMPOUNDS FOR TREATING NEUROLOGICAL DISEASES AND CANCERS” (The Chinese University of Hong Kong, priority 2023, published 2025):
Counter-ions that a name gives are not always drawn. Like-named read-outs stand apart in the source and are kept apart here.

Assays:
[1] = Single-dose CCK-8 cell viability screening (adherent cells); type: cell-based, human; settings: Homo sapiens, average of A549 and Jurkat % viability, 50 uM, 48 h
[2] = test system: A549 cells; test: as above; type: cell-based, human; settings: Homo sapiens, A549 cells, 50 uM, 48 h, CCK-8, read-out: % Viability (50 uM, 48 h) A549
[3] = test system: Jurkat cells; test: Single-dose CCK-8 cell viability screening (suspension cells); type: cell-based, human; settings: Homo sapiens, 48 h, Jurkat cells, 50 uM
[4] = test system: A549 cells; test: Dose-dependent CCK8 viability assay; type: cell-based, human; settings: Homo sapiens, A549, 48 h
Description: (§1) In this example, dose-dependent CCK8 Viability assay was performed to determine the IC50 (the concentration of compound to achieve 50% viability) of several of the hit compounds identified from Example 2. A variety of cell lines were used: • Jurkat cells: Human leukemia • A549 cells: Human NSCLC • KP-1 cells: Mouse NSCLC with KRAS and P53 mutations • MCF-7 cells: Human breast cancer
(§2) Method for Adherent Cells (A549, MCF-7 and KP-1 Cells)
(§3) 5000 cells/100 uL were seeded in 96-well plates and incubate at 37° C.+5% CO2 overnight. Media were replaced with 100 uL of compound per well in 6 replicates in a series of 2-fold dilutions. The following controls were prepared.
(§4) Blank control: 100 uL 0.1% DMSO in media with no cells per well.
(§5) Positive control: 100 uL of 10 uM 5-flurouracil per well.
(§6) Negative control: 100 uL of 0.1% DMSO in media per well.
(§7) Each 96-well plate included 1 compound in 7 concentrations and a complete set of controls (in 6 replicates).
(§8) Cells were incubated at 37° C.+5% CO2 for 46 hours. 10 uL of CCK8 solution was added to each well. Cells were incubated at 37° C.+5% CO2 for 2 hours. Absorbance at 450 nm was measured using a multiplate reader.
(§9) Viability was calculated using the equation: […]

[5] = test system: KP-1 cells; test: Dose-dependent CCK8 viability assay; type: cell-based; settings: Mus musculus, 48 hours
Description: as §1, §2, §3, §4, §5, §6, §7, §8, §9

[6] = test system: HT22 mouse hippocampal cell line; test: RSL3-induced ferroptosis model, cell viability (CCK-8)
[7] = test system: HMC3 microglial cell line; test: as above; type: cell-based
[8] = test system: BV-2 murine microglial cell line; test: as above
Description: In this example, the anti-ferroptotic properties of the BB analogues described in preceding examples were evaluated by a RSL3-induced ferroptosis model. […] To evaluate the anti-ferroptosis activity of BB analogues, we developed a phenotypic screening based on RSL3-induced ferroptosis model on HT22 mouse hippocampal cell line, HMC3 microglial cell line and BV-2 murine microglial cell line which were co-treated or pre-treated with RSL3 and BB analogues for 2-24 h, and the cell viability was subsequently measured. […]
For phenotypic screening of bilobalide (BB) analogues, 5,000 cells per well (100 uL volume) of HT22, HMC3 or BV-2 cells were placed in 96-well plate and allowed to adhere for 22 h. […] Cell viability was measured using cell counting kit-8 (CCK-8) (MCE). […] Cell viability was measured after 22 h treatment by CCK-8. […] Cell viability was measured by CCK-8 using CLARIOstar monochromator multimode plate reader under 450 nm wavelength.
In this example, the cells were pre-treated with RSL3 (200 nM for HT22 and HMC3, 500 nM for BV-2) for two hours, followed by bilobalide analogues treatment (50 PM) for 22 hours. Cell viability was measured using cell counting kit-8 (CCK-8); n=5 technical replicates. […]

[9] = test system: LC3-II/LC3-I; settings: HMC3, co-treated with RSL3 1 μM and compound 10, 5, 2.5 μM, 3 h
Description: After incubation, cells were washed 3 times with ice-cold PBS and lysed in RIPA buffer containing 1× protease inhibitor cocktail (MCE) and nuclease (Biyotime) on ice for 30 min. All samples were centrifuged and then quantified by bicinchoninic acid (BCA) assay (Pierce). Cell lysates were diluted with Laemmli Sample Buffer (Bio-Rad) and heated at 95° C. for 5 min. Samples were separated by 12% SDS-PAGE and transferred to a polyvinylidene difluoride membrane. Membrane was incubated with 3% bovine serum albumin (BSA, Sigma-Aldrich) for 1 h, and subsequently incubated with indicated primary antibody overnight at 4° C. After incubation, membrane was washed by wash buffer (containing 20 mM Tris, 150 mM NaCl and 0.1% Tween 20), and incubated with peroxidase-conjugated secondary antibody at room temperature for 1 h. Antibodies for GPX4 (52455, Cell Signaling Technology) was used at 1:500 dilution, GAPDH (sc-32233, Santacruz) was used at 1:3000 dilution, LC3B (A19665, ABclonal) was used at 1:1000 dilution. Goat anti-rabbit IgG HRP-linked antibody (7074, CST) was used at 1:2500 dilution, goat anti-mouse IgG (H+L) secondary antibody DyLight™ 488 (35502, Invitrogen) was used at 1:5000 dilution. Blot was washed and visualized using Clarity Western ECL Substrate (Bio-Rad) with ChemiDoc MP Imaging System (Bio-Rad). Band intensity was normalized by image J software.

[10] = cell free
[11] = test system: GPX4; test: GPX4 protein level by Western-blot; type: cell-based; settings: HMC3, co-treated with RSL3 1 μM and compound 10, 5, 2.5 μM, 3 h
From the text: As mentioned above, RSL3 treatment results in an oxidized environment in cells, which promotes the CMA to scavenge damaged proteins including GPX4 or glyceraldehyde-3-phosphate dehydrogenase (GAPDH), a well-known CMA substrate. To gain insights into the mechanism of action of bilobalide analogue XBB-037 against the RSL3-induced ferroptosis, HMC3 cells were pre-treated with RSL3, followed by treatment with or without bilobalide analogue XBB-037.
In FIN56 assay, HMC3 (300,000 cells per well on 6-well plate) was pre-treated with FIN56 (2.5, 1.25, 0.625 μM) for 2 h, followed by 8 h treatment of DMSO only (0.1%) or XBB-037 (50 μM). In RSL3 assay, HMC3 (300,000 cells per well on 6-well plate) was pre-treated with RSL3 (750, 500, 250 nM) for 2 h, followed by 4 h or 8 h treatment of DMSO only (0.1%) or XBB-037 (50 μM). […] Antibodies for GPX4 (52455, CST) was used at 1:500 dilution, β-Actin (AC026, ABclonal) was used at 1:400,000 dilution, GAPDH (AC035, ABclonal) was used at 1:3000 dilution. […] Band intensity was normalized by image lab software.
Now referring to FIGS. 7E-7F, GPX4 levels in HMC3 cells pre-treated with RSL3 are shown. Protein levels of GPX4 and […] at 0, 250, 500 or 750 nM RSL3 were measured by Western-blot. HMC3 cells were pretreated with RSL3 for 2 hours and then treated with or without 50 μM bilobalide analogue XBB-037 for 4 hours.
In addition to […], FIN56 was further used to investigate the GPX4 regulation of bilobalide analogue XBB-037. As mentioned above, FIN56 is a Class III ferroptosis inducer, which causes the depletion of cellular GPX4 levels without affecting GPX4 activity. In this experiment, HMC3 cells were pretreated with FIN56 for 2 hours and then treated with or without 50 μM XBB-037 for 8 hours. Protein levels were measured by Western-blotting using indicated antibodies. Data were plotted as mean±s.d., n=3 technical replicates. **p<0.01. Statistical analyses were performed by two-way ANOVA with multiple comparisons using Two-stage linear step-up procedure of Benjamini, Krieger and Yekutieli multiple comparisons test. […]

[12] = test system: HMC3 cells; test: Lipid peroxidation level by flow cytometry using C11-BODIPY; type: cell-based
Description: (§10) For flow cytometry, HMC3 cells (seeded 50,000 cells per well on 24-well plate one day prior to the experiment) were pretreated with 50 nM RSL3 for 2 h. […] After which medium was replaced with BODIPY™ 581/591C11 (10 μM, Invitrogen) or CellROX™ Green (5 μM, Invitrogen) for 30 min staining. Cells were then washed 3 times with PBS and collected. Fluorescence was measured by BD FACSympgony A5.2 SORP Flow Cell Analyzer (BD Biosciences).
Disequilibrium ROS level acts as a direct initiator of lipid peroxidation, which is one of the major hallmarks of ferroptosis. In this example, HMC3 cells according to the conditions in Table 4 were subjected to measurement of lipid peroxidation level using flow cytometry and the lipid peroxidation sensor C11-BODIPY.
For flow cytometry, HMC3 cells (seeded 50,000 cells per well on 24-well plate one day prior to the experiment) were pretreated with 50 nM RSL3 for 2 h. After RSL3 treatment, medium was replaced by DMSO (0.1%) only, SXQ087-1 (10, 5 and 2.5 μM), following by 3 h treatment. After which medium was replaced with BODIPY™ 581/591C11 (10 μM, Invitrogen) for 30 min staining. Cells were then washed 3 times with PBS and collected. Fluorescence was measured by BD FACSympgony A5.2 SORP Flow Cell Analyzer (BD Biosciences).
Lipid peroxidation is one of the major hallmarks of ferroptosis. In this example, HMC3 cells according to the conditions in Table 5 were subjected to measurement of lipid peroxidation level using flow cytometry and the lipid peroxidation sensor C11-BODIPY.

[13] = test system: HMC3 cells; test: Cytotoxicity, cell viability of HMC3 cells; type: cell-based; settings: 24 h treatment
From the text: Now referring to FIG. 11A, a chart showing the cell viability (%) of HMC3 cells treated with SXQ087-1, XBB-037 or bilobalide.

[14] = test system: HMC3 cells; type: cell-based
[15] = Hydrolytic stability in buffer monitored by LC-MS/MS
[16] = test system: HMC3 cells; test: Intracellular ROS level by CellROX (fluorescent imaging and flow cytometry); type: cell-based; settings: HMC3, 50 nM RSL3 2 h, then 50 μM compound 3 h
Description: as §10
For fluorescent imaging, 10,000 cells per well of HMC3 were laid on cover slip and incubated overnight. After the same compound treatment as described above in this section, cells were subsequently incubated with CellROX™ Green and Hoechst 34580 (MCE) for 30 min. After incubation, cells were washed 3 times gently with PBS. Cover slips were then attached to glass slides by Anti-Fade Fluorescence Mounting Medium (Abcam) and imaged via ECLIPSE Ti fluorescence microscope (Nikon). Fluorescent intensity was quantified using imageJ software.
To further evaluate the anti-ferroptotic properties of bilobalide analogues, we tested its effect on the total level of intracellular reactive oxygen species (ROS), we performed fluorescent staining on the HMC3 cell line using CellROX, which is a probe which can emit green fluorescence after reacting with ROS. […]

[17] = buffer pH 7.4, within the first 10 hours

In the case of `CC(C)(C)[C@]1(O)C[C@@H]2OC(=O)C[C@@]23C(=O)O[C@@H]2N(c4ccc(C(F)(F)F)cc4)C(=O)[C@H](OC(=O)c4ccccc4)[C@]213` [P-29, (3aS,5aS,8R,9R,10aS)-9-(tert-butyl)-9-hydroxy-2,4,7-trioxo-6-(4-(trifluoromethyl)phenyl)octahydro-4H,9H-furo [3″,2″:2′,3′]cyclopenta [1′,2′:3,4]furo [2,3-b]pyrrol-8-yl benzoate], the viability at 50 µM ([1]; A549, 48 h) is reported as 53.1%, the viability at 50 µM ([2]; A549, 48 h) is reported as 46.7% and the viability at 50 µM ([3]; Jurkat, CCK-8, read-out: % Viability (50 uM, 48 h) Jurkat) is reported as 59.6%. The IC50 [4] was 5.84 µM.

`CC(C)(C)[C@]1(O)C[C@@H]2OC(=O)C[C@@]23C(=O)O[C@@H]2N(CC4C5CC6CC(C5)CC4C6)C(=O)[C@H](OC(=O)c4ccc(CN)cc4)[C@]213` (stereo partly drawn) [SCC506, (3aS,5aS,8R,8aS,9R,10aS)-6-(((1S,3S)-adamantan-2-yl)methyl)-9-(tert-butyl)-9-hydroxy-2,4,7-trioxooctahydro-4H,9H-furo[3″,2″:2′,3′]cyclopenta[1′,2′:3,4]furo[2,3-b]pyrrol-8-yl 4-(aminomethyl)benzoate hydrochloride] gave an IC50 [5] of 17.2 µM.

With `CC(C)(C)[C@]1(O)C[C@@H]2OC(=O)C[C@@]23C(=O)O[C@@H]2N(CCc4ccc(O)c(O)c4)C(=O)[C@H](OC(=O)c4ccccc4)[C@]213` [SXQ087-1] the “inhibition of RSL3-induced ferroptosis (phenotypic screening, cell viability)” value (from here on “inhibition of RSL3-induced ferroptosis”) [6] was “effectively inhibit ferroptosis”, the “inhibition of RSL3-induced ferroptosis” value [7] was “effectively inhibit ferroptosis” and the “inhibition of RSL3-induced ferroptosis” value [8] was “effectively inhibit ferroptosis”. For the same compound, the “LC3-II/LC3-I ratio after RSL3” value [9] was “increasing LC3-II/LC3-I ratio was also reduced”, the “radical scavenging activity (relative radical level)” value [10] was “significant dose-dependent radical scavenging activity” and the “GPX4 level after RSL3” value [11] was “RSL3-induced GPX4 degradation was reduced”. For the same compound, the “lipid peroxidation level (C11-BODIPY)” value [12] was “significant down-regulation of RSL3-induced lipid peroxidation accumulation in a dose-dependent manner”, the “cytotoxicity (cell viability)” value [13] was “no significant cytotoxicity” and the “protection against FIN56-induced cell death (cell viability)” value [14] was “effectively suppressed FIN56-induced cell death”. The “protection against ML162 lethality (cell viability)” value [14] was “alleviated the lethality of ML162”, the “protection against ML210 lethality (cell viability)” value [14] was “alleviated the lethality of ML210” and the “protection against erastin-induced lethality (cell viability)” value [14] was “suppressed erastin-induced lethality”.

With `CC(C)(C)[C@]1(O)C[C@@H]2OC(=O)C[C@@]23C(=O)O[C@@H]2NC(=O)[C@H](O)[C@]213` [XBB-006, (3aS,5aS,8R,8aS,9R,10aS)-9-(tert-butyl)-8,9-dihydroxytetrahydro-4H,9Hfuro[3″,2″:2′,3′]cyclopenta[1′,2′:3,4]furo[2,3-b]pyrrole-2,4,7(3H,8H)-trione] the “concentration remaining (hydrolytic stability)” value (“concentration remaining” for short) ([15]; buffer pH 6.8, after 20 hours) was “about 80%”, the “concentration remaining” value [15, 17] was “above 80%” and the viability at 50 µM [1] was 99.2%. It also gave a viability at 50 µM [2] of 96.4% and a viability at 50 µM ([3]; CCK-8, read-out: % Viability (50 uM, 48 h) Jurkat) of 102%.

With `CC(C)(C)[C@]1(O)C[C@@H]2OC(=O)C[C@@]23C(=O)O[C@@H]2OC(=O)[C@H](O)[C@]213` [bilobalide] the “shift of RSL3 dose-dependent viability curve” value ([6]; HT22, multiple doses of RSL3, 50 μM compound) was “relatively marginal”, the “shift of RSL3 dose-dependent viability curve” value ([7]; HMC3, multiple doses of RSL3, 50 μM compound) was “relatively marginal” and the “intracellular ROS level (CellROX fluorescent staining)” value [16] was “no reduction in ROS level”. The “concentration remaining” value ([15]; buffer pH 6.8, after 20 hours) was “below 20%”, the “concentration remaining” value [15, 17] was “below 20%” and the “lipid peroxidation level (C11-BODIPY)” value ([12]; HMC3, 50 nM RSL3 2 h, then 50, 25 and 12.5 μM compound 3 h) was “no significant alteration”. The “cytotoxicity (cell viability)” value [13] was “no significant cytotoxicity”.
